# Test results as given in patent US11834453B2, “Substituted pyrimido[5,4-d]pyrimidines as HER2 inhibitors” (Array BioPharma Inc., priority 2020, dated 2023).
# Biological target: ErbB2 insYVMA (HER2-YVMA, SEQ ID NO: 2) (Homo sapiens, UniProt P04626, INS775YVMA/P1170A)
# Assay: biochemical
# Conditions: ErbB2 insYVMA enzyme assay; read-out: Assay 1 IC50
# ErbB2 insYVMA (HER2-YVMA, SEQ ID NO: 2), sequence (P04626 with tags, fused parts or gaps INS775YVMA/P1170A limits assumed): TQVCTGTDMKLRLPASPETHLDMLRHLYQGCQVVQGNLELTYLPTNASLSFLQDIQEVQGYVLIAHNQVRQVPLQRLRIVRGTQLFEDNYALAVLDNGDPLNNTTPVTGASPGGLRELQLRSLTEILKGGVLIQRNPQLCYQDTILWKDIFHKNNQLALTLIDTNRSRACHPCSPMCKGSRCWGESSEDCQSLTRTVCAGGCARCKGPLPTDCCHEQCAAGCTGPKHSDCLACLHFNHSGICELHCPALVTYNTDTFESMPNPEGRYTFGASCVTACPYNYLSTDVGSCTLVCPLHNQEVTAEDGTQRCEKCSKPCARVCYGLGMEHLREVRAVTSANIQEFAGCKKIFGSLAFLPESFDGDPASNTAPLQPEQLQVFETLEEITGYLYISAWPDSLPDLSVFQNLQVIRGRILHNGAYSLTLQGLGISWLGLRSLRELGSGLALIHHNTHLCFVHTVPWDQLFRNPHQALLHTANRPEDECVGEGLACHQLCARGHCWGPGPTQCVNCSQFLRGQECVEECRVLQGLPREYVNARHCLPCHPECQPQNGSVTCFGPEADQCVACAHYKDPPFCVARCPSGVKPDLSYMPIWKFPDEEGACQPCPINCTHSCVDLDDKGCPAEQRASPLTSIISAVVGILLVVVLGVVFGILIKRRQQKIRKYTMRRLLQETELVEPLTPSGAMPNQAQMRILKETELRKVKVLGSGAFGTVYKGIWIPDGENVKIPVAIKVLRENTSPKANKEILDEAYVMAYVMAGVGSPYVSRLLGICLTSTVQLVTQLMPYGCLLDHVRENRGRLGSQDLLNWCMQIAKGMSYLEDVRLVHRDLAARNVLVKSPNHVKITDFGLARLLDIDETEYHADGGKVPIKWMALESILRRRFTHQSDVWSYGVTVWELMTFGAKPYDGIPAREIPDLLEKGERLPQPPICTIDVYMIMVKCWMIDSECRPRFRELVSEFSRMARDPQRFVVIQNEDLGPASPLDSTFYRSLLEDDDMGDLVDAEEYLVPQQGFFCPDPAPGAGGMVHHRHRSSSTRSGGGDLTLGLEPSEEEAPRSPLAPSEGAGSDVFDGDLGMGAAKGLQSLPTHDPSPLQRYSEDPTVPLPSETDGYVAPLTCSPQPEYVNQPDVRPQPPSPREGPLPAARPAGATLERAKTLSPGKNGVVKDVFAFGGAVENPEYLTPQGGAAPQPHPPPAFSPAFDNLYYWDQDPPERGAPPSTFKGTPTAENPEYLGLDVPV
row,Structure (SMILES),IC50 [µM]
1,O[C@H]1C[C@H]2C[C@@H]1CN2c1ncc2ncnc(Nc3ccc(Oc4ccn5ncnc5c4)c(Cl)c3)c2n1 [Example 335],0.0157
2,O[C@H]1[C@@H]2C[C@H]1CN(c1ncc3ncnc(Nc4ccc(Oc5ccn6ncnc6c5)c(Cl)c4)c3n1)C2 [Example 336],0.054
3,CC1(C)CN(c2ncc3ncnc(Nc4ccc(Oc5ccn6ncnc6c5)c(Cl)c4)c3n2)CC[C@@H]1O [Example 337],0.017
4,O[C@H]1CN(c2ncc3ncnc(Nc4ccc(Oc5ccn6ncnc6c5)c(Cl)c4)c3n2)CC[C@@H]1F [Example 338],0.0132
5,CC1(C)CN(c2ncc3ncnc(Nc4ccc(Oc5ccn6ncnc6c5)c(Cl)c4)c3n2)C[C@H]1O [Example 339],0.0472
6,C[C@H]1CN(c2ncc3ncnc(Nc4ccc(Oc5ccn6ncnc6c5)c(Cl)c4)c3n2)C[C@@H]1O [Example 340],0.0168
7,O[C@@H]1[C@@H]2CC[C@H]1CN(c1ncc3ncnc(Nc4ccc(Oc5ccn6ncnc6c5)c(Cl)c4)c3n1)C2 [Example 341],0.0127
8,O[C@H]1[C@@H]2CC[C@H]1CN(c1ncc3ncnc(Nc4ccc(Oc5ccn6ncnc6c5)c(Cl)c4)c3n1)C2 [Example 342],0.0104
9,Cc1cc(Nc2ncnc3cnc(N(CC(F)F)CC(F)F)nc23)ccc1Oc1ccc2c(c1)ncn2C [Example 344],0.161
10,Cc1cc(Nc2ncnc3cnc(N4CCC5(CCO5)CC4)nc23)ccc1Oc1ccc2c(c1)ncn2C [Example 345],0.0313
11,Cc1cc(Nc2ncnc3cnc(N4CCN5C(=O)COC[C@H]5C4)nc23)ccc1Oc1ccc2c(c1)ncn2C [Example 346],0.0395
12,Cc1c(Oc2ccc3c(c2)ncn3C)ccc(Nc2ncnc3cnc(N4CC5CC5(O)C4)nc23)c1F (stereo not shown) [Example 347],0.0796
13,Cc1cc(Nc2ncnc3cnc(N(C)[C@H]4CCCOC4)nc23)ccc1Oc1ccn2ncnc2c1 [Example 349],0.0189
14,Clc1cc(Nc2ncnc3cnc(N4C[C@@H]5[C@H](C4)[C@H]4CC[C@@H]5O4)nc23)ccc1Oc1ccn2ncnc2c1 [Example 351],0.0308

# Biological target: ErbB2 WT (Homo sapiens (Human), UniProt P04626)
# Assay: ErbB enzyme assay (CisBio HTRF KinEASE-TK), Assay 2
# Assay type: biochemical
# Conditions: not given
# Outline: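 Readout is HTRF KinEASE-TK, using Sa-XL665 and cryptate antibody for 1 h at 22 °C, as percent of control between DMSO-only (100) and pre-quenched (0) reactions. The kinase reaction runs 30 min at 22 °C with 1 mM ATP and 250 nM biotinylated TK substrate, in HEPES pH 7.4 with MgCl2 and 2% DMSO.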
# ErbB2 WT, sequence (P04626 23-1255): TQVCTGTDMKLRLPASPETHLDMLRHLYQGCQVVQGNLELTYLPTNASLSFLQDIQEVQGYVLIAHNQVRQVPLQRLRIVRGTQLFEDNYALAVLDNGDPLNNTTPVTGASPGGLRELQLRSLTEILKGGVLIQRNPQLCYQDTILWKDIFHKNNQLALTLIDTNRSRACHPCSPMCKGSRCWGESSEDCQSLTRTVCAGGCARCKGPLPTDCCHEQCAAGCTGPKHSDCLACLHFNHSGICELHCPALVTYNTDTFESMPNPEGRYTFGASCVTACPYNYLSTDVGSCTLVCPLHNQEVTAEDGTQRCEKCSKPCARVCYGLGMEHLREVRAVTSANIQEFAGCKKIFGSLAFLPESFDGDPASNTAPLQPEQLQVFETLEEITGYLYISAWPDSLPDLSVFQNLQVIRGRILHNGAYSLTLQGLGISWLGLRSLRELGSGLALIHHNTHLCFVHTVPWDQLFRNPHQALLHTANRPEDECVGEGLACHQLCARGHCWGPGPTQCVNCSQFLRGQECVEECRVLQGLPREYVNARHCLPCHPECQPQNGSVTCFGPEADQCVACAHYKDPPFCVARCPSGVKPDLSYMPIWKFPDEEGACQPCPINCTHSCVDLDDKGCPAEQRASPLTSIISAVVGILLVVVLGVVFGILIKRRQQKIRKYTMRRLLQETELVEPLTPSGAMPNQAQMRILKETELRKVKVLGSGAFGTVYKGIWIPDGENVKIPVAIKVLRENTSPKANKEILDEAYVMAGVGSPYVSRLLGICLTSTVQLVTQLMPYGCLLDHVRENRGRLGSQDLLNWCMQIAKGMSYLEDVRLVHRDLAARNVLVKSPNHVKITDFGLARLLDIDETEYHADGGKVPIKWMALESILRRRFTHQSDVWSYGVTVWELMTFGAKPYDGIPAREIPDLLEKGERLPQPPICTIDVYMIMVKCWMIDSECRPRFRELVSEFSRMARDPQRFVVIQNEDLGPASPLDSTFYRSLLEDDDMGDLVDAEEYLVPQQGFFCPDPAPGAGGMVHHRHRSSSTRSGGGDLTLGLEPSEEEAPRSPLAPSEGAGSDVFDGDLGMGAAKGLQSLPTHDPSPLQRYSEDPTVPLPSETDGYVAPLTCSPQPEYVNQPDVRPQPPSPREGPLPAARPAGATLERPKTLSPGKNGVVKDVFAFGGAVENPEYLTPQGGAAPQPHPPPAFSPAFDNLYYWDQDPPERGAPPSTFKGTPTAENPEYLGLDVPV
row,Structure (SMILES),IC50 [µM]
1,O[C@H]1C[C@H]2C[C@@H]1CN2c1ncc2ncnc(Nc3ccc(Oc4ccn5ncnc5c4)c(Cl)c3)c2n1 [Example 335],0.0241
2,O[C@H]1[C@@H]2C[C@H]1CN(c1ncc3ncnc(Nc4ccc(Oc5ccn6ncnc6c5)c(Cl)c4)c3n1)C2 [Example 336],0.13
3,CC1(C)CN(c2ncc3ncnc(Nc4ccc(Oc5ccn6ncnc6c5)c(Cl)c4)c3n2)CC[C@@H]1O [Example 337],0.0133
4,O[C@H]1CN(c2ncc3ncnc(Nc4ccc(Oc5ccn6ncnc6c5)c(Cl)c4)c3n2)CC[C@@H]1F [Example 338],0.0128
5,CC1(C)CN(c2ncc3ncnc(Nc4ccc(Oc5ccn6ncnc6c5)c(Cl)c4)c3n2)C[C@H]1O [Example 339],0.0714
6,C[C@H]1CN(c2ncc3ncnc(Nc4ccc(Oc5ccn6ncnc6c5)c(Cl)c4)c3n2)C[C@@H]1O [Example 340],0.0412
7,O[C@@H]1[C@@H]2CC[C@H]1CN(c1ncc3ncnc(Nc4ccc(Oc5ccn6ncnc6c5)c(Cl)c4)c3n1)C2 [Example 341],0.0207
8,O[C@H]1[C@@H]2CC[C@H]1CN(c1ncc3ncnc(Nc4ccc(Oc5ccn6ncnc6c5)c(Cl)c4)c3n1)C2 [Example 342],0.0253
9,Cc1cc(Nc2ncnc3cnc(N(CC(F)F)CC(F)F)nc23)ccc1Oc1ccc2c(c1)ncn2C [Example 344],0.675
10,Cc1cc(Nc2ncnc3cnc(N4CCC5(CCO5)CC4)nc23)ccc1Oc1ccc2c(c1)ncn2C [Example 345],0.0578
11,Cc1cc(Nc2ncnc3cnc(N4CCN5C(=O)COC[C@H]5C4)nc23)ccc1Oc1ccc2c(c1)ncn2C [Example 346],0.0604
12,Cc1c(Oc2ccc3c(c2)ncn3C)ccc(Nc2ncnc3cnc(N4CC5CC5(O)C4)nc23)c1F (stereo not shown) [Example 347],0.11
13,Cc1cc(Nc2ncnc3cnc(N(C)[C@H]4CCCOC4)nc23)ccc1Oc1ccn2ncnc2c1 [Example 349],0.024
14,Clc1cc(Nc2ncnc3cnc(N4C[C@@H]5[C@H](C4)[C@H]4CC[C@@H]5O4)nc23)ccc1Oc1ccn2ncnc2c1 [Example 351],0.0584

# Biological target: EGFR wild type (EGFR WT) (Homo sapiens (Human), UniProt P00533)
# Assay: Cellular phosphorylation assay, EGF-stimulated EGFR phosphorylation in engineered NIH 3T3 cells, Phospho-EGFR DuoSet IC ELISA, Assay 5
# Assay type: cell-based
# Conditions: not given
# Outline: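 Phospho-EGFR ELISA on lysates of engineered NIH 3T3 EGFR WT cells, IC50 derived from concentration curves. Cells plated at 20,000/well overnight, given compound dilutions 1 h at 37 °C, then rEGF 100 ng/ml for a further 10 min before lysis.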
# EGFR wild type (EGFR WT), sequence (P00533 25-1210): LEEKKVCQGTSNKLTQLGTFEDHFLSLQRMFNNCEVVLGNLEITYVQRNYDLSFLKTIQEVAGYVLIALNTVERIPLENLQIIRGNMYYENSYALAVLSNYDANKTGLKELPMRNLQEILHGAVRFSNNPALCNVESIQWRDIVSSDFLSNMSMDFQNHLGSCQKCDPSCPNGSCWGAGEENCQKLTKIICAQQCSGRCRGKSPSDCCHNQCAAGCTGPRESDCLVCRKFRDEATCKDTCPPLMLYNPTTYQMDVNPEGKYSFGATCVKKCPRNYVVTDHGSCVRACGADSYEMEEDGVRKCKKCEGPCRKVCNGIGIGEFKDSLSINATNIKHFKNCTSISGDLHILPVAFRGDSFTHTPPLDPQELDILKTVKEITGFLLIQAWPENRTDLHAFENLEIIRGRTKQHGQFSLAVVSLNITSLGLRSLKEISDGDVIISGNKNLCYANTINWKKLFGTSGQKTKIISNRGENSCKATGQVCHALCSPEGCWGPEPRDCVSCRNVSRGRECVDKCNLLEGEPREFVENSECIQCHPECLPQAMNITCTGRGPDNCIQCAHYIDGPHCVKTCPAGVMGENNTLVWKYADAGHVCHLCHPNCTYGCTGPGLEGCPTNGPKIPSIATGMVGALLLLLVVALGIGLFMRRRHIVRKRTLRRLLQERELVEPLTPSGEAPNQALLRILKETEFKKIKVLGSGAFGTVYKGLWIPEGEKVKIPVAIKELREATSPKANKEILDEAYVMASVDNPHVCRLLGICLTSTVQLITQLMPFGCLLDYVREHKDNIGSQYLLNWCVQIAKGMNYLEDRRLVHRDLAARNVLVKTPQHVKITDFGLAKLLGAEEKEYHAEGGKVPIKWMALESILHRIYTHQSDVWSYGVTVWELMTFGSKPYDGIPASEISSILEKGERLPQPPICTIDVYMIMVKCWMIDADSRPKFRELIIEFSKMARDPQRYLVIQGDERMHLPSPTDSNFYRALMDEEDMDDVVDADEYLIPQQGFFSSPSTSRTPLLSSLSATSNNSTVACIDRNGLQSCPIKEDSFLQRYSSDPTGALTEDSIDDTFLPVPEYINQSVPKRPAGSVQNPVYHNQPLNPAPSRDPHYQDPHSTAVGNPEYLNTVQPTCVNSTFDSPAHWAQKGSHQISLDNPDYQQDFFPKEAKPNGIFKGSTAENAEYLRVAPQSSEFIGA
row,Structure (SMILES),IC50 [µM]
1,O[C@H]1C[C@H]2C[C@@H]1CN2c1ncc2ncnc(Nc3ccc(Oc4ccn5ncnc5c4)c(Cl)c3)c2n1 [Example 335],≥ 5
2,O[C@H]1[C@@H]2C[C@H]1CN(c1ncc3ncnc(Nc4ccc(Oc5ccn6ncnc6c5)c(Cl)c4)c3n1)C2 [Example 336],≥ 5
3,CC1(C)CN(c2ncc3ncnc(Nc4ccc(Oc5ccn6ncnc6c5)c(Cl)c4)c3n2)CC[C@@H]1O [Example 337],≥ 5
4,O[C@H]1CN(c2ncc3ncnc(Nc4ccc(Oc5ccn6ncnc6c5)c(Cl)c4)c3n2)CC[C@@H]1F [Example 338],≥ 5
5,CC1(C)CN(c2ncc3ncnc(Nc4ccc(Oc5ccn6ncnc6c5)c(Cl)c4)c3n2)C[C@H]1O [Example 339],≥ 5
6,C[C@H]1CN(c2ncc3ncnc(Nc4ccc(Oc5ccn6ncnc6c5)c(Cl)c4)c3n2)C[C@@H]1O [Example 340],≥ 5
7,O[C@@H]1[C@@H]2CC[C@H]1CN(c1ncc3ncnc(Nc4ccc(Oc5ccn6ncnc6c5)c(Cl)c4)c3n1)C2 [Example 341],≥ 5
8,O[C@H]1[C@@H]2CC[C@H]1CN(c1ncc3ncnc(Nc4ccc(Oc5ccn6ncnc6c5)c(Cl)c4)c3n1)C2 [Example 342],≥ 5
9,Cc1cc(Nc2ncnc3cnc(N(CC(F)F)CC(F)F)nc23)ccc1Oc1ccc2c(c1)ncn2C [Example 344],≥ 5
10,Cc1cc(Nc2ncnc3cnc(N4CCC5(CCO5)CC4)nc23)ccc1Oc1ccc2c(c1)ncn2C [Example 345],≥ 5
11,Cc1cc(Nc2ncnc3cnc(N4CCN5C(=O)COC[C@H]5C4)nc23)ccc1Oc1ccc2c(c1)ncn2C [Example 346],≥ 5
12,Cc1c(Oc2ccc3c(c2)ncn3C)ccc(Nc2ncnc3cnc(N4CC5CC5(O)C4)nc23)c1F (stereo not shown) [Example 347],≥ 5
13,Cc1cc(Nc2ncnc3cnc(N(C)[C@H]4CCCOC4)nc23)ccc1Oc1ccn2ncnc2c1 [Example 349],≥ 5
14,Clc1cc(Nc2ncnc3cnc(N4C[C@@H]5[C@H](C4)[C@H]4CC[C@@H]5O4)nc23)ccc1Oc1ccn2ncnc2c1 [Example 351],≥ 5

# Biological target: ErbB2 with Exon 20 YVMA insertion (HER2-YVMA) (Homo sapiens (Human), UniProt P04626, INS775YVMA)
# Assay: Cellular phosphorylation assay, constitutive ErbB2 phosphorylation (Y1196) in engineered NIH 3T3 cells, Assay 4
# Assay type: cell-based
# Conditions: not given
# Outline: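 In-cell Western in NIH 3T3 cells carrying ErbB2 exon 20 YVMA insertion, with no ligand stimulation. One hour compound exposure at 37 °C before fixation and anti-pY1196 plus GAPDH staining with dual-wavelength fluorescence. IC50 derived after GAPDH normalization.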
row,Structure (SMILES),IC50 [µM]
1,O[C@H]1C[C@H]2C[C@@H]1CN2c1ncc2ncnc(Nc3ccc(Oc4ccn5ncnc5c4)c(Cl)c3)c2n1 [Example 335],0.143
2,O[C@H]1[C@@H]2C[C@H]1CN(c1ncc3ncnc(Nc4ccc(Oc5ccn6ncnc6c5)c(Cl)c4)c3n1)C2 [Example 336],2.26
3,CC1(C)CN(c2ncc3ncnc(Nc4ccc(Oc5ccn6ncnc6c5)c(Cl)c4)c3n2)CC[C@@H]1O [Example 337],0.0703
4,O[C@H]1CN(c2ncc3ncnc(Nc4ccc(Oc5ccn6ncnc6c5)c(Cl)c4)c3n2)CC[C@@H]1F [Example 338],0.0652
5,CC1(C)CN(c2ncc3ncnc(Nc4ccc(Oc5ccn6ncnc6c5)c(Cl)c4)c3n2)C[C@H]1O [Example 339],0.587
6,C[C@H]1CN(c2ncc3ncnc(Nc4ccc(Oc5ccn6ncnc6c5)c(Cl)c4)c3n2)C[C@@H]1O [Example 340],0.165
7,O[C@@H]1[C@@H]2CC[C@H]1CN(c1ncc3ncnc(Nc4ccc(Oc5ccn6ncnc6c5)c(Cl)c4)c3n1)C2 [Example 341],0.0431
8,O[C@H]1[C@@H]2CC[C@H]1CN(c1ncc3ncnc(Nc4ccc(Oc5ccn6ncnc6c5)c(Cl)c4)c3n1)C2 [Example 342],0.108
9,Cc1cc(Nc2ncnc3cnc(N(CC(F)F)CC(F)F)nc23)ccc1Oc1ccc2c(c1)ncn2C [Example 344],0.128
10,Cc1cc(Nc2ncnc3cnc(N4CCC5(CCO5)CC4)nc23)ccc1Oc1ccc2c(c1)ncn2C [Example 345],0.0185
11,Cc1cc(Nc2ncnc3cnc(N4CCN5C(=O)COC[C@H]5C4)nc23)ccc1Oc1ccc2c(c1)ncn2C [Example 346],0.0203
12,Cc1c(Oc2ccc3c(c2)ncn3C)ccc(Nc2ncnc3cnc(N4CC5CC5(O)C4)nc23)c1F (stereo not shown) [Example 347],0.244
13,Cc1cc(Nc2ncnc3cnc(N(C)[C@H]4CCCOC4)nc23)ccc1Oc1ccn2ncnc2c1 [Example 349],0.116
14,Clc1cc(Nc2ncnc3cnc(N4C[C@@H]5[C@H](C4)[C@H]4CC[C@@H]5O4)nc23)ccc1Oc1ccn2ncnc2c1 [Example 351],0.15

# Biological target: EGFR (Homo sapiens (Human), UniProt P00533)
# Assay: ErbB enzyme assay (CisBio HTRF KinEASE-TK), Assay 3
# Assay type: biochemical
# Conditions: not given
# Outline: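 First, enzyme was reacted with compound, 1 mM ATP and 250 nM biotinylated tyrosine-kinase peptide for 30 min at 22 °C at pH 7.4. Next, streptavidin-XL665 and cryptate antibody were added for 1 h. Finally, HTRF ratios were converted to POC and fitted to yield IC50.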
# EGFR, sequence (P00533 25-1210): as above
row,Structure (SMILES),IC50 [µM]
1,O[C@H]1C[C@H]2C[C@@H]1CN2c1ncc2ncnc(Nc3ccc(Oc4ccn5ncnc5c4)c(Cl)c3)c2n1 [Example 335],4.11
2,O[C@H]1[C@@H]2C[C@H]1CN(c1ncc3ncnc(Nc4ccc(Oc5ccn6ncnc6c5)c(Cl)c4)c3n1)C2 [Example 336],≥ 10
3,CC1(C)CN(c2ncc3ncnc(Nc4ccc(Oc5ccn6ncnc6c5)c(Cl)c4)c3n2)CC[C@@H]1O [Example 337],2.49
4,O[C@H]1CN(c2ncc3ncnc(Nc4ccc(Oc5ccn6ncnc6c5)c(Cl)c4)c3n2)CC[C@@H]1F [Example 338],1.99
5,CC1(C)CN(c2ncc3ncnc(Nc4ccc(Oc5ccn6ncnc6c5)c(Cl)c4)c3n2)C[C@H]1O [Example 339],5.24
6,C[C@H]1CN(c2ncc3ncnc(Nc4ccc(Oc5ccn6ncnc6c5)c(Cl)c4)c3n2)C[C@@H]1O [Example 340],4
7,O[C@@H]1[C@@H]2CC[C@H]1CN(c1ncc3ncnc(Nc4ccc(Oc5ccn6ncnc6c5)c(Cl)c4)c3n1)C2 [Example 341],1.74
8,O[C@H]1[C@@H]2CC[C@H]1CN(c1ncc3ncnc(Nc4ccc(Oc5ccn6ncnc6c5)c(Cl)c4)c3n1)C2 [Example 342],1.67
9,Cc1cc(Nc2ncnc3cnc(N(CC(F)F)CC(F)F)nc23)ccc1Oc1ccc2c(c1)ncn2C [Example 344],≥ 10
10,Cc1cc(Nc2ncnc3cnc(N4CCC5(CCO5)CC4)nc23)ccc1Oc1ccc2c(c1)ncn2C [Example 345],≥ 10
11,Cc1cc(Nc2ncnc3cnc(N4CCN5C(=O)COC[C@H]5C4)nc23)ccc1Oc1ccc2c(c1)ncn2C [Example 346],≥ 10
12,Cc1c(Oc2ccc3c(c2)ncn3C)ccc(Nc2ncnc3cnc(N4CC5CC5(O)C4)nc23)c1F (stereo not shown) [Example 347],≥ 10
13,Cc1cc(Nc2ncnc3cnc(N(C)[C@H]4CCCOC4)nc23)ccc1Oc1ccn2ncnc2c1 [Example 349],1.29
14,Clc1cc(Nc2ncnc3cnc(N4C[C@@H]5[C@H](C4)[C@H]4CC[C@@H]5O4)nc23)ccc1Oc1ccn2ncnc2c1 [Example 351],≥ 10
